Laboratory results as given in ChEMBL document CHEMBL1158027, “Sesquiterpene esters of aristolochic acid from the root and stem of Aristolochia heterophylla” (J Nat Prod, 1999).

Test: Cytotoxicity against human HepG2(2.2.15) cells
Format: functional, cell-based

Compound | IC50 [µM]
C/C1=C\CC/C(C=O)=C/[C@H](OC(=O)c2cc3c(c4c2c([N+](=O)[O-])cc2ccccc24)OCO3)C/C(C)=C/CC1 | 8.23
C/C1=C\CC/C(C=O)=C\[C@H](OC(=O)c2cc3c(c4c2c([N+](=O)[O-])cc2ccccc24)OCO3)C/C(C)=C/CC1 | 7.53
COc1cccc2c1cc([N+](=O)[O-])c1c(C(=O)O[C@H]3/C=C(\C=O)CC/C=C(\C)CC/C=C(\C)C3)cc3c(c12)OCO3 | 4.83
COc1cccc2c1cc([N+](=O)[O-])c1c(C(=O)O[C@H]3/C=C(/C=O)CC/C=C(\C)CC/C=C(\C)C3)cc3c(c12)OCO3 | 5.44
